Assay results: patent US20230399374A1, “Compounds, Compositions and Methods of Use to Treat Bone Fractures” (PURDUE RESEARCH FOUNDATION, priority 2020, published 2023)
Non-standard residues stand in square brackets, D forms with d. No end group written: not given here. Aib = CC(C)(N)C(=O)O

How the values were obtained:
[1] = test system: type I diabetic femur fracture; assay: Fracture repair model, type I diabetes, compounds dosed in conjunction with insulin; format: in vivo, mice; conditions: with insulin 2 IU/day; for strength (maximum force, work to fracture, modulus): significance relative to insulin-treated group, FIG. 22A-C
Procedure: (§1) Targeted conjugates of SEQ ID NO: 5, abaloparatide (SEQ ID NO: 2), SEQ ID NO: 6, and SEQ ID NO: 9 (a conjugate with 10 aspartic acid residues) were synthesized using Fmoc solid-phase peptide synthesis. From SEQ ID NO: 5, amino acids 1-34 were used, and abaloparatide (SEQ ID NO: 2) is a stabilized version of amino acids 1-36 of SEQ ID NO: 1. Diabetes was induced in 40 8-week-old male CD-1 mice via seven subcutaneous injections of streptozotocin (STZ) until blood sugar readings were above 250 mg/dL. The mice were left in this confirmed diabetic state for 2 months to allow the diabetes to take effect on the bones. Then, aseptic surgical techniques were used to place a 23-gauge needle as an intramedullary nail in the femur of the anesthetized mice for internal fixation before fracture was induced with a drop-weight fracture device from RISystem and confirmed by x-ray. The mice received buprenorphine for three days post-fracture. They were dosed subcutaneously with a positive control of insulin, a negative control of vehicle, SEQ ID NO: 5, or abaloparatide (SEQ ID NO: 2) each day for 4 weeks. Fracture healing was assessed qualitatively using micro-CT (Scanco Medical Ag). Fractured femurs were tested for strength in a 4-point-bend-to-failure using an ElectroForce TestBench (TA Instruments, New Castle, DE). Maximum load, stiffness, displacement post-yield, and work-to-fracture data were generated. Statistical analysis was performed using a one-way analysis of variance (ANOVA) with significance reported with p values less than 0.05 (*) and 0.01 (**).
However, since […] patients will not stop taking their insulin to take a compound provided herein, the experiment was repeated with compounds dosed in conjunction with insulin (FIGS. 20-22). […]
For FIGS. 22A-22C, insulin was dosed at 2 IU/day in all groups, except for saline. […] All significance levels were calculated relative to the insulin-treated group, not the saline control group. […]

[2] = test system: fracture site (fractured femur); set-up: species or system mice; conditions: mouse, in vivo; for cumulative residence time (AUC) at the fracture site / half-life at the fracture site: sc
Excerpt: (§2) SEQ ID NO: 4 was subcutaneously injected into fracture-bearing mice. […] The results are shown in FIG. 30, which is a graph of hours vs. percent injected dose in blood (cpm/g) of mice with midshaft femoral factures. […] The results are shown in FIG. 31, which is a graph of hours vs. percent injected dose in bone (cpm/g) of mice with midshaft femoral factures.

[3] = set-up: species or system mice; conditions: mouse, in vivo, sc
Excerpt: as §2

[4] = test system: midshaft femoral fractures; assay: Midshaft femur fracture healing in otherwise healthy mice (micro-CT, bend to failure); format: in vivo; conditions: for bone deposition in CT images: three weeks after initiation of treatment, FIG. 35
Excerpt: In some instances, elevated accumulation of SEQ ID NO: 4 at the fracture site improves fracture healing (e.g., FIGS. 26-30). In some instances, femur fracture healing times following administration of a starting dose calculated by allometric scaling of the human dose prescribed for abaloparatide (SEQ ID NO: 2) treatment of osteoporosis are compared.
Bone morphometric analyses confirmed a 1.5-fold increase in the ratio of mineralized volume (bone volume; BV) to total bone volume (total volume; TV) in the SEQ ID NO: 4-treated mice.
In some instances, such as, to establish whether the observed increase in bone deposition translates into an improvement in mechanical properties, the force required to bend the healed femurs until they fractured again was measured.
In some instances, the force to fracture in the SEQ ID NO: 4-treated mice exceeded that required to fracture the contralateral healthy femurs in the same mice or similar, unmodified femurs in saline-treated mice.
The length of the targeting oligopeptide was increased to determine if it increased the drug's affinity for broken bone sufficiently that retention of the anabolic payload at the fracture site would be prolonged and less frequent dosing may be required. Mice were doses once every three days, rather than daily. […] The results are shown in FIG. 34, which is a graph of treatment (saline, SEQ ID NO: 3 (0.1 nmol/mg (0.1×), 1 nmol/mg (1×), and 10 nmol/mg (10×), and SEQ ID NO: 4 (0.1 nmol/mg (0.1×), 1 nmol/mg (1×), and 10 nmol/mg (10×)) vs. max load (N) of mice with midshaft femoral factures.

[5] = test system: type I diabetic femur fracture; format: in vivo; conditions: for callus mineralization (BV) and bone density (BV/TV): four weeks of treatment, micro-CT, FIG. 13 and 14; for strength of the fractures (max load, work to fracture): four weeks, 4-point bend, FIG. 15 and 16
Procedure: as §1
Four compounds were tested. […] Abaloparatide (SEQ ID NO: 2) is a stabilized version of parathyroid-related protein hormone. Dasatinib is an […] with off-target effects on both osteoblasts and osteoclasts that improve overall bone density. Dasatinib has also proven to be a senolytic. ITGA is a fibronectin mimetic that promotes intramembranous bone fracture healing. […] Therefore, it was hypothesized that the glucose regulating properties of full-length SEQ ID NO: 5 may be beneficial in healing type I diabetic fractures as a dual-action compound that may improve healing via two mechanisms. The compounds were compared against insulin as a positive control and saline as a negative control.
BV represents the bone volume of the 100 thickest micro-CT slices of the fracture callus and is a measure of how much bone has mineralized at the site of fracture repair. BV/TV represents the BV divided by TV of the 100 thickest micro-CT slides of the fracture callus and is a measure of how dense the bone is at the site of fracture repair. Insulin was dosed as 2 IU/day. Doses of 0.1×, 50×, and 10×, are […], and 10 nmol, respectively, of the conjugate delivered daily by subcutaneous injection. SEQ ID NO: 6 was dosed at 10 μmol/kg every other day.
Insulin was dosed at 2 IU/day. Doses of 0.1×, 50×, and 10×, are 0.1 nmol, 50 nmol, and […], of the conjugate delivered daily by subcutaneous injection. SEQ ID NO: 6 was dosed at 10 μmol/kg every other day.

midshaft femur fracture = assay: Pain/function outcomes, locomotor open-field testing after midshaft femur fracture; format: in vivo, mice; conditions: for pain/function outcomes, well-being in the open field: 5 weeks post-fracture, measured once a week
Procedure: Pain/function outcomes in mice were accessed by turning to behavioral testing. Allodynia was evaluated using Von Frey probes, whereas gain was evaluated using DigiGait, functionality was evaluated using running wheels, and anxiety coupled with functionality was evaluated using locomotor open-field testing. Open-field locomotor testing afforded the most consistent measurements.
Mice were habituated to the behavior room for 30-60 minutes before testing locomotor activity. Animals were habituated once for 10 minutes to the locomotor boxes prior to the start of the experiment. They were then placed individually in a locomotor box with infrared light tracking beams for 10 minutes before being removed and placed back in their home cage. The mice were tracked via EthoVision using 3-point directionality testing. Mice were measured for two weeks prior to the experiment. They then underwent the midshaft femur fracture model and were assigned to one of three treatment groups: 1) abaloparatide DE20 twice a week; 2) phosphate buffered saline twice a week; or 3) ibuprofen (0.6 g/L) in their water. The mice were treated for 5 weeks post-fracture and measured once a week.
For FIGS. 26-28, day 0 represents the baseline data pre-fracture. Saline and SEQ ID NO: 4 (1 nmol) were injected twice/week. Ibuprofen was administered constantly in the mice's water at a concentration of 0.6 g/L.

[6] = dosed once every three days, FIG. 34

abaloparatide [SEQ ID NO: 2, reference compound]
strength (maximum force, work to fracture, modulus) [1]: significantly improved the strength compared to the insulin control | cumulative residence time (AUC) at the fracture site [2]: 8 h | half-life at the fracture site [2]: 8.8 h | circulation half-life [3]: 4.2 h | cumulative systemic exposure (AUC) [3]: 24.4 h | bone deposition in CT images [4]: concentrated on the periphery of the fracture, with minimal density bridging the opposing calluses | callus mineralization (BV) and bone density (BV/TV) [5]: impacting density the most

SEQ ID NO: 3: SEQ ID NO: 15 (AVSEHQLLHDKGKSIQDLRRRELLEKLLxKLHTAEIRATSEVSPNS) followed by eeeeeeeeee, e = D-glutamic acid (AVSEHQLLHDKGKSIQDLRRRELLEKLL[Aib]KLHTAEIRATSEVSPNS[dE][dE][dE][dE][dE][dE][dE][dE][dE][dE])
max load compared to saline (significance) [4, 6]: lacked significance when dosed every three days | healing in healthy femur fractures ([4]; mouse, in vivo): repeatedly accelerated healing in healthy femur fractures | relative effectiveness at improving bone healing ([4]; mouse, in vivo): better than abaloparatide

CC(C)Cc1ccc(C(C)C(=O)O)cc1 (stereo not drawn) [ibuprofen, reference compound]
pain/function outcomes, well-being in the open field (midshaft femur fracture): did not improve their pain/function outcomes

SEQ ID NO: 6: a targeted conjugate of dasatinib (e.g., D10-ester-dasatinib) ({ester‑dasatinib}-DDDDDDDDDD)
healing in healthy femur fractures ([4]; mouse, in vivo): repeatedly accelerated healing in healthy femur fractures | callus mineralization (BV) and bone density (BV/TV) [5]: without improving the callus mineralization | strength of the fractures (max load, work to fracture) [5]: improved strength | change in body mass ([5]; mouse, in vivo): lost weight | toxicity (in words) ([5]; mouse, in vivo): exhibited some toxicity at higher doses

AVSEHQLLHDKGKSIQDLRRRELLEKLLxKLHTAEIRATSEVSPNSeeeeeeeeeeeeeeeeeeee [SEQ ID NO: 4]
distance traveled in 10 minutes (midshaft femur fracture; 1 nmol twice/week, FIG. 26): began to run farther | time spent moving in 10 minutes (midshaft femur fracture; 1 nmol twice/week, FIG. 27): began to run for longer periods of time | mean velocity in 10 minutes (midshaft femur fracture; 1 nmol twice/week, FIG. 28): began to run faster | pain/function outcomes, well-being in the open field (midshaft femur fracture): more functionality and better well-being | cumulative residence time (AUC) at the fracture site relative to abaloparatide [2]: 11 fold | residence time in the contralateral femur, fold lower than in the fractured femur [2]: 8 fold | cumulative residence time (AUC) at the fracture site [2]: 96 h | half-life at the fracture site [2]: 67 h | circulation half-life [3]: 3.7 h | cumulative systemic exposure (AUC) [3]: 20 h | maximum load relative to free abaloparatide-treated femurs ([4]; FIG. 32): 2.5 fold | work to fracture relative to abaloparatide-treated femurs ([4]; FIG. 33): 3.5 fold | max load compared to saline (significance) [4, 6]: significantly higher | maximum load before breakage, abalode 20 versus abalode 10, greater strength ([4]; dosed once every three days, trend, FIG. 34): 20-30% | relative effectiveness at improving bone healing ([4]; mouse, in vivo): more effective (e.g., at improving bone healing) than SEQ ID NO: 3 | time at which bones return to their previous unbroken strength ([4]; mouse, in vivo): between two and three weeks post-fracture | bone deposition in CT images [4]: distributed (e.g., more) evenly across the fractured area | morphometric basis of the increase in bone density ([4]; three weeks of therapy): primarily due to a reduction in trabecular spacing, rather than an increase in trabecular thickness | increase in the ratio of bone volume to total volume (BV/TV) ([4]; three weeks of therapy, compared with abaloparatide-treated mice): 1.5 fold | strength of repaired femurs above original unbroken femurs ([4]; versus contralateral healthy femurs): 30%

SEQ ID NO: 8: cyclic peptide 102, a conjugate with 10 glutamic acid residues (HEEEEEEEEEERRETAWA; also: cyclic, ring not given here)
mineralization of the callus (bone volume) ([1]; four weeks, FIG. 20A): improved the mineralization of the callus better than insulin | strength (maximum force, work to fracture, modulus) [1]: significantly improved the strength compared to the insulin control

insulin [reference compound]
callus mineralization (BV) and bone density (BV/TV) [5]: improvement in mineralization | strength of the fractures (max load, work to fracture) [5]: not able to restore the quality of the bone | blood sugar levels ([5]; four-week treatment period, FIG. 18): the only compound to improve blood sugar levels

SEQ ID NO: 7: ITGA (fibronectin mimetic cyclic peptide 101) conjugated with 10 glutamic acid residues (HEEEEEEEEEERRETAWA; also: cyclic, ring not given here)
healing in healthy femur fractures ([4]; mouse, in vivo): repeatedly accelerated healing in healthy femur fractures
